The supplement of paper PMC11923942

How the values were obtained:
[1] = collision cross section (N2, base ion); higher = larger ion cross section
Experimental: (§1)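 Standards of hydrophobic organic contaminants were analysed by GC-APCI (positive mode, dry or wet source conditions) coupled to cyclic ion mobility-QTOF MS. CCS was measured for the base ion (sometimes a fragment ion) in N2 drift gas (one-pass mode, calibrated with a Waters 22-compound mix).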

[2] = GC retention time (DB-5MS, GC-APCI); higher = later elution
Experimental: as §1, with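 “mix). 5 mL/min).” for “mix).”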

SMILES	collision cross section [1]	GC retention time [2]
Clc1ccc(-c2cc(Cl)c(Cl)c(Cl)c2Cl)c(Cl)c1Cl [PCB 170] (APCI source condition: Dry, base ion: M+.)	165.18 Å²	22.5 min
Clc1cc(Cl)c(-c2cc(Cl)c(Cl)c(Cl)c2Cl)cc1Cl [PCB 180] (APCI source condition: Dry, base ion: M+.)	166.55 Å²	22 min
Clc1cc(Cl)c(-c2c(Cl)c(Cl)cc(Cl)c2Cl)cc1Cl [PCB 187] (APCI source condition: Dry, base ion: M+.)	165.54 Å²	21.1 min
Clc1ccc(Cl)c(-c2c(Cl)c(Cl)c(Cl)c(Cl)c2Cl)c1Cl [PCB 200] (APCI source condition: Dry, base ion: M+.)	167.33 Å²	22.2 min
Brc1cc(Br)c(Br)c(Br)c1Br [Pentabromobenzene] (APCI source condition: Dry, base ion: M+.)	135.24 Å²	18.5 min
Cc1c(Br)c(Br)c(Br)c(Br)c1Br [Pentabromotoluene] (APCI source condition: Dry, base ion: M+.)	140.29 Å²	20.1 min
Clc1cc(Cl)c(Cl)c(Cl)c1Cl [Pentachlorobenzene] (APCI source condition: Dry, base ion: M+.)	135.24 Å²	12.4 min
c1cc2cccc3c4cccc5cccc(c(c1)c23)c54 [Perylene] (APCI source condition: Dry, base ion: M+.)	143.02 Å²	25 min
c1ccc2c(c1)ccc1ccccc12 [Phenanthrene] (APCI source condition: Dry, base ion: M+.)	137.89 Å²	15.6 min
c1cc2ccc3cccc4ccc(c1)c2c34 [Pyrene] (APCI source condition: Dry, base ion: M+.)	137.65 Å²	18.9 min
CCCCCCOP(=O)(OCCCCCC)OCCCCCC [Trihexyl phosphate] (APCI source condition: Wet, base ion: [M+H]+)	201 Å²	19.4 min
O=P(Oc1ccccc1)(Oc1ccccc1)Oc1ccccc1 [Triphenylphosphate] (APCI source condition: Wet, base ion: [M+H]+)	168.91 Å²	21.1 min
O=P(OC(CCl)CCl)(OC(CCl)CCl)OC(CCl)CCl [Tris(1,3-dichloropropan-2-yl) phosphate] (APCI source condition: Wet, base ion: [M+H]+)	175.08 Å²	20.4 min
CC(CCl)OP(=O)(OC(C)CCl)OC(C)CCl (centres undefined) [Tris(1-chloro-2-propyl)phosphate] (APCI source condition: Wet, base ion: [M-C3H4Cl]+)	160.76 Å²	15.4 min
CCCCOCCOP(=O)(OCCOCCCC)OCCOCCCC [Tris(2-butoxyethyl) phosphate] (APCI source condition: Wet, base ion: [M+H]+)	198.91 Å²	21.1 min
O=P(OCCCl)(OCCCl)OCCCl [Tris(2-chloroethyl) phosphate] (APCI source condition: Wet, base ion: [M+H]+)	145.65 Å²	15.1 min
CCCCC(CC)COP(=O)(OCC(CC)CCCC)OCC(CC)CCCC (centres undefined) [Tris(2-ethylhexyl) phosphate] (APCI source condition: Wet, base ion: [M+H]+)	221.61 Å²	21.5 min
O=S1OC[C@@H]2[C@H](CO1)[C@@]1(Cl)C(Cl)=C(Cl)[C@]2(Cl)C1(Cl)Cl (stereo partly drawn) [α-Endosulfan] (APCI source condition: Wet, base ion: [M+H]+)	163.16 Å²	18.9 min
ClC1C(Cl)C(Cl)C(Cl)C(Cl)C1Cl (stereo not drawn) [α-Hexachlorocyclohexane] (APCI source condition: Dry, base ion: [M-H2Cl3]+)	137.25 Å²	14.5 min
O=S1OC[C@@H]2[C@H](CO1)[C@]1(Cl)C(Cl)=C(Cl)[C@]2(Cl)C1(Cl)Cl (stereo partly drawn) [β-Endosulfan] (APCI source condition: Wet, base ion: [M+H]+)	162.35 Å²	20 min
Cl[C@H]1[C@H](Cl)[C@@H](Cl)[C@H](Cl)[C@@H](Cl)[C@@H]1Cl [β-Hexachlorocyclohexane] (APCI source condition: Dry, base ion: [M-H2Cl3]+)	138.19 Å²	15.1 min
ClC1C(Cl)C(Cl)C(Cl)C(Cl)C1Cl (centres undefined) [γ-Hexachlorocyclohexane] (APCI source condition: Dry, base ion: [M-H2Cl3]+)	137.38 Å²	15.2 min
